Reference: patent publication US8962660B2 (Bristol-Myers Squibb Company, priority 2013, dated 2015)
Where a name gives a salt, the structure may show the parent alone. Blank lines part the entries; values can stand above or below the molecule they belong to.

Molecular target: T1, human GPR120 (Homo sapiens, UniProt Q5NUL3)
T1 construct: expressed in transfected cells; host or cells: CHOA12 cells
T1 sequence (Q5NUL3 1-361): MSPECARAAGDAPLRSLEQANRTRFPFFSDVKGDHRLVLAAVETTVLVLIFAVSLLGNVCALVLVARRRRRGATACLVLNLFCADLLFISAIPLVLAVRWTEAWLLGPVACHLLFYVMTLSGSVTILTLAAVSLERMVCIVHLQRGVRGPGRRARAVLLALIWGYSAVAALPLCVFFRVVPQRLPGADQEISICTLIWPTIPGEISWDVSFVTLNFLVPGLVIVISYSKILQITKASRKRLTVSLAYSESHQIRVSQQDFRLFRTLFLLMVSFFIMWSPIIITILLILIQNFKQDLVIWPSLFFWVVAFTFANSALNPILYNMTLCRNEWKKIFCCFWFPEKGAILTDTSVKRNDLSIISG
Assay: GPR120 pERK AlphaScreen SureFire assay (human)
Type: cell-based
Details: CHO cells stably transfected with short form of human GPR120
From the text: GPR120 activity was monitored by measuring phosphorylation of ERK (pERK), since G protein receptors are known to activate the ERK signaling cascade either directly and/or through recruitment of arrestin that serves as a scaffold for downstream signaling events.
GPR120 pERK AlphaScreen SureFire Assay
The human and mouse GPR120-mediated intracellular phosphorylated ERK assays were established using CHOA12 cells stably transfected with the short form of human or mouse GPR120 receptor. Cells were cultured in growth medium consisting of F-12 media (Invitrogen Cat. #11765) with 5% Charcoal/Dextran FBS (Invitrogen Cat. #12676-029), 500 μg/mL GENETICIN® (Life Technologies Cat. #10131-027) and 250 μg/mL Zeocin (Invitrogen Cat. #R250-01). Cells were cryo preserved at a concentration of 2×10^7 cells/mL, in 90% Charcoal/Dextran FBS and 10% DMSO, and frozen in liquid nitrogen at a low passage number.
For the pERK assay, 2×10^7 cells/mL cryopreserved human and mouse cells were thawed rapidly in a 37° C. water bath and added to a T-225 flask containing 50 mL growth medium. The flasks were placed in a tissue culture incubator overnight (37° C., 5% CO2). The next day, cells were harvested with trypsin (Gibco Cat. #25300-054), resuspended in serum-containing growth medium and counted using a Cellometer and volume adjusted to a concentration of 0.6×10^6cells/mL. Cells were plated into 384-well clear bottom tissue culture plates (BD Cat. #353962) at 50 μL/well, for a density of 30,000 cells/well using a MULTIDROP® and incubated for 16-18 hours (overnight) at 37° C. with 5% CO2. The next day, cells were serum starved in 30 μL of F-12 media without any serum or antibiotics for 2 hours at 37° C.
Test compounds were 3-fold, 11-point serially diluted in DMSO in a REMP assay plate (Matrix Cat. #4307) by Tecan and 5 μL was transferred into an ECHO source plate (LABCYTE® Cat. #LC-0200). Cells were then stimulated with 50 nL of compound dilutions using ECHO liquid handler for 7 minutes at 37° C. Compounds ranged from final assay concentrations of 33.33 μM to 0.56 nM.
The media was then dumped and cells lysed with 20 μL of 1× Lysis buffer from the AlphaScreen SureFire Phospho-ERK 1/2 Kit (Perkin Elmer Cat. #6760617M). The lysis buffer was diluted 5-fold with water before use. The plate was agitated on a shaker for 10 minutes after which 2 μL was transferred into a 384-well white proxiplate (Perkin Elmer Cat. #6008289). The SureFire assay reagent mix was prepared by mixing 60 parts Reaction Buffer, 10 parts Activation Buffer, 1 part Donor Beads, 1 part Acceptor Beads (Perkin Elmer Cat. #TGRES10K). 3.5 μL/well of this reagent mix was manually added to the proxiplate with a multichannel pipettor. Plates were spun down at 1000 rpm for 2 minutes, followed by light-protected incubation at room temperature for 2 hours. The plates were read on the Alpha-technology compatible Envision multilabel plate reader using AlphaScreen protocol according to manufacturer's specifications. The agonist effect of compounds was expressed as 100×(average sample−average blank)/(average total−average blank) where sample is the luminescence activity in the presence of test compound, blank is equal to the luminescence activity in the presence of DMSO control and the total is signal induced by 50 μM linolenic acid as reference compound. Activation data for the test compound over a range of concentrations was plotted as percentage activation of the test compound (100%=maximum response). After correcting for background, EC50 values were determined The EC50 is defined as the concentration of test compound which produces 50% of the maximal response and was quantified using the 4 parameter logistic equation to fit the data.
The human and mouse GPR120-mediated intracellular phosphorylated ERK assays were also established using CHO-K1 cells stably transfected with the short form of human or mouse GPR120 receptor. […]

SMILES: CC(C)COc1cccc(C23CCC(CCOCC(=O)O)(CC2)CO3)c1 [Example 9, 2-(2-(1-(3-Isobutoxyphenyl)-2-oxabicyclo[2.2.2]octan-4-yl)ethoxy)acetic acid]
EC50: 1.28 µM

SMILES: O=C(O)CCCCC12CCC(c3cccc(OC4CCCCO4)c3)(CC1)OC2 (centres unmarked) [Example 10, 5-(1-(3-(Tetrahydro-2H-pyran-2-yloxy)phenyl)-2-oxabicyclo[2.2.2]octan-4-yl)pentanoic acid]
EC50: 0.64 µM

SMILES: O=C(O)/C=C/CCC12CCC(c3cccc(Oc4ccccc4)c3)(CC1)OC2 [Example 11, (E)-5-(1-(3-Phenoxyphenyl)-2-oxabicyclo[2.2.2]octan-4-yl)pent-2-enoic acid]
EC50: 0.1 µM

SMILES: O=C(O)COCCCC12CCC(c3cccc(Oc4ccccc4)c3)(CC1)OC2 [Example 12, 2-(3-(1-(3-Phenoxyphenyl)-2-oxabicyclo[2.2.2]octan-4-yl)propoxy)acetic acid]
EC50: 0.98 µM

SMILES: O=C(O)CC1CC1CC12CCC(c3cccc(Oc4ccccc4)c3)(CC1)OC2 (stereo not drawn) [Example 16, 2-(2-((1-(3-Phenoxyphenyl)-2-oxabicyclo[2.2.2]octan-4-yl)methyl)cyclopropyl)acetic acid (trans)]
EC50: 0.16 µM

SMILES: C=C(C)COc1cccc(C23CCC(CCOCC(=O)O)(CC2)CO3)c1 [Example 19, 2-(2-(1-(3-(2-Methylallyloxy)phenyl)-2-oxabicyclo[2.2.2]octan-4-yl)ethoxy)acetic acid]
EC50: 1.98 µM

SMILES: CC(C)=COc1cccc(C23CCC(CCOCC(=O)O)(CC2)CO3)c1 [Example 20, 2-(2-(1-(3-(2-Methylprop-1-enyloxy)phenyl)-2-oxabicyclo[2.2.2]octan-4-yl)ethoxy)acetic acid]
EC50: 0.65 µM

SMILES: O=C(O)COCCC12CCC(c3cccc(Oc4cccnc4)c3)(CC1)OC2 [Example 21, 2-(2-(1-(3-(Pyridin-3-yloxy)phenyl)-2-oxabicyclo[2.2.2]octan-4-yl)ethoxy)acetic acid, TFA salt]
EC50: 6.86 µM

SMILES: COc1cccc(Oc2cccc(C34CCC(CCOCC(=O)O)(CC3)CO4)c2)c1 [Example 22, 2-(2-(1-(3-(3-Methoxyphenoxy)phenyl)-2-oxabicyclo[2.2.2]octan-4-yl)ethoxy)acetic acid]
EC50: 0.38 µM

SMILES: O=C(O)COCCC12CCC(c3cc(F)cc(Oc4ccccc4)c3)(CC1)OC2 [Example 23, 2-(2-(1-(3-Fluoro-5-phenoxyphenyl)-2-oxabicyclo[2.2.2]octan-4-yl)ethoxy)acetic acid]
EC50: 0.31 µM

SMILES: O=C(O)COCCC12CCC(c3cccc(C4=CCCC4)c3)(CC1)OC2 [Example 24, 2-(2-(1-(3-Cyclopentenylphenyl)-2-oxabicyclo[2.2.2]octan-4-yl)ethoxy)acetic acid]
EC50: 0.8 µM

SMILES: O=C(CCCCC12CCC(c3cccc(Oc4ccccc4)c3)(CC1)OC2)NS(=O)(=O)c1ccccc1 [Example 25, 5-(1-(3-Phenoxyphenyl)-2-oxabicyclo[2.2.2]octan-4-yl)-N-(phenylsulfonyl)pentanamide]
EC50: 0.59 µM

SMILES: CS(=O)(=O)NC(=O)CCCCC12CCC(c3cccc(Oc4ccccc4)c3)(CC1)OC2 [Example 26, N-(Methylsulfonyl)-5-(1-(3-phenoxyphenyl)-2-oxabicyclo[2.2.2]octan-4-yl)pentanamide]
EC50: 0.17 µM

SMILES: O=C(O)CNC(=O)CC12CCC(c3cccc(Oc4ccccc4)c3)(CC1)OC2 [Example 27, 2-(2-(1-(3-Phenoxyphenyl)-2-oxabicyclo[2.2.2]octan-4-yl)acetamido)acetic acid]
EC50: 5.02 µM

SMILES: O=C(O)COC(=O)NCC12CCC(c3cccc(Oc4ccccc4)c3)(CC1)OC2 [Example 28, 2-((1-(3-Phenoxyphenyl)-2-oxabicyclo[2.2.2]octan-4-yl)methylcarbamoyloxy)acetic acid]
EC50: 1.98 µM

SMILES: O=C(O)CCS(=O)(=O)CC12CCC(c3cccc(Oc4ccccc4)c3)(CC1)OC2 [Example 29, 3-((1-(3-Phenoxyphenyl)-2-oxabicyclo[2.2.2]octan-4-yl)methylsulfonyl)propanoic acid]
EC50: 1.57 µM

SMILES: O=C(O)CCOCC12CCC(c3cccc(Oc4ccccc4)c3)(CC1)CO2 [Example 30, 3-((4-(3-Phenoxyphenyl)-2-oxabicyclo[2.2.2]octan-1-yl)methoxy)propanoic acid]
EC50: 0.14 µM

SMILES: O=C(O)COCCC12CCC(c3cccc(Oc4ccccc4)c3)(CC1)CO2 [Example 31, 2-(2-(4-(3-Phenoxyphenyl)-2-oxabicyclo[2.2.2]octan-1-yl)ethoxy)acetic acid]
EC50: 0.28 µM

SMILES: CC(C)COc1cc(F)cc(C23CCC(CCOCC(=O)O)(CC2)CO3)c1 [Example 36, 2-(2-(1-(3-Fluoro-5-isobutoxyphenyl)-2-oxabicyclo[2.2.2]octan-4-yl)ethoxy)acetic acid]
EC50: 0.72 µM

More lines, now with the values ahead:

EC50: 1.9 µM
SMILES: COC(CCC12CCC(c3cccc(Oc4ccccc4)c3)(CC1)OC2)CC(=O)O (centres unmarked) [Example 33, 3-Methoxy-5-(1-(3-phenoxyphenyl)-2-oxabicyclo[2.2.2]octan-4-yl)pentanoic acid]

EC50: 0.07 µM
SMILES: O=C(O)C/C=C/CC12CCC(c3cccc(Oc4ccccc4)c3)(CC1)OC2 [Example 34, (E)-5-(1-(3-Phenoxyphenyl)-2-oxabicyclo[2.2.2]octan-4-yl)pent-3-enoic acid]

EC50: 0.66 µM
SMILES: O=C(O)/C=C\CCC12CCC(c3cccc(Oc4ccccc4)c3)(CC1)OC2 [Example 35, (Z)-5-(1-(3-Phenoxyphenyl)-2-oxabicyclo[2.2.2]octan-4-yl)pent-2-enoic acid]

EC50: 1.14 µM
SMILES: O=C(O)COCCC12CCC(c3ccccc3Oc3ccccc3)(CC1)OC2 [Example 37, 2-(2-(1-(2-Phenoxyphenyl)-2-oxabicyclo[2.2.2]octan-4-yl)ethoxy)acetic acid]

EC50: 0.2 µM
SMILES: O=C(O)COCCC12CCC(c3cccc(Oc4ccc(F)cc4)c3)(CC1)OC2 [Example 39, 2-(2-(1-(3-(4-fluorophenoxy)phenyl)-2-oxabicyclo[2.2.2]octan-4-yl)ethoxy) acetic acid]

EC50: 0.3 µM
SMILES: O=C(O)COCCC12CCC(c3cccc(Oc4ccc(Cl)cc4)c3)(CC1)OC2 [Example 40, 2-(2-(1-(3-(4-chlorophenoxy)phenyl)-2-oxabicyclo[2.2.2]octan-4-yl)ethoxy) acetic acid]

EC50: 0.2 µM
SMILES: Cc1ccc(Oc2cccc(C34CCC(CCOCC(=O)O)(CC3)CO4)c2)cc1 [Example 41, 2-(2-(1-(3-(p-tolyloxy)phenyl)-2-oxabicyclo [2.2.2]octan-4-yl)ethoxy)acetic acid]

EC50: 0.37 µM
SMILES: COc1ccc(Oc2cccc(C34CCC(CCOCC(=O)O)(CC3)CO4)c2)cc1 [Example 42, 2-(2-(1-(3-(4-methoxyphenoxy)phenyl)-2-oxabicyclo [2.2.2]octan-4-yl)ethoxy)acetic acid]

EC50: 0.55 µM
SMILES: Cc1cccc(Oc2cccc(C34CCC(CCOCC(=O)O)(CC3)CO4)c2)c1 [Example 43, 2-(2-(1-(3-(m-tolyloxy)phenyl)-2-oxabicyclo [2.2.2]octan-4-yl)ethoxy)acetic acid]

EC50: 0.45 µM
SMILES: O=C(O)COCCC12CCC(c3cccc(Oc4cccc(Cl)c4)c3)(CC1)OC2 [Example 44, 2-(2-(1-(3-(3-chlorophenoxy)phenyl)-2-oxabicyclo[2.2.2]octan-4-yl)ethoxy) acetic acid]
